Type in all cases: cell-based
In data set [1] the target is T1, HA-EGFP-HaloTag fusion protein (Rhodococcus rhodochrous, UniProt P0A3G2, C176G/H272F/K175M/Y273L).
T1 construct: The HaloTag protein was obtained from pHT2 vector (Promega); expressed in transfected cells
Nature of the data set: Immunoblotting of HA-EGFP-HaloTag in Flp-In 293 cells. As to conditions: 10 μM pretreatment 1 hour, then 1 μM HyT13, 6 hours. The method, then: Flp-In 293 cells expressing HA-EGFP-HaloTag were treated with indicated concentrations of HyT13 for 24 hours. The lysates were probed with anti-HA and anti-β-actin antibodies, with β-actin serving as a loading control. Shown is quantification of three separate experiments, with error bars representing SEM.
Flp-In 293 cells expressing HA-EGFP-HaloTag cells were treated for the indicated times with 1 μM HyT13 and the lysates were probed with anti-HA and anti-β-actin antibodies. The rightmost sample was treated with HyT13 for 24 hours, after which HyT13-free media was provided for 24 hours. Shown is quantification of three separate experiments, with error bars representing SEM.
The indicated cells were washed twice with cold PBS and the cells were lysed in lysis buffer (1×PBS, 1% NP-40, 1 mM EDTA, 40 mM HEPES) with protease inhibitors. The lysates were cleared by centrifugation at 10,000 g for 5 min. The total protein concentration was determined by Bradford assay and 50 μg of protein was loaded onto an 8% Bis-Tris gel. To solubilize polyubiquitinated and aggregated proteins upon proteasome inhibition^42 samples generated for FIG. 12d were lysed with a SDS lysis buffer (1×PBS, 1% NP-40, 1% SDS, 1% sodium deoxycholate, 1 mM EDTA, 40 mM HEPES) with protease inhibitors. The blots were processed by standard procedures with indicated antibodies, and the band intensities were quantified by ImageJ.
As the luciferase assay relied on the loss-of-activity of the luciferase-HaloTag fusion protein, we wanted to determine whether the decrease in luciferase activity resulted from the degradation of the entire fusion protein or perhaps simply inhibition of luciferase activity. We generated a stable Flp-In 293 cell line with a single integration site containing HA-EGFP-HaloTag fusion protein, and employed this cell line to perform kinetic studies with HyT13. […] Consistent with our previous observations, treatment of these cells with 1 μM of HyT13 for 24 hours reduced the mean fluorescence intensity of cells almost 7-fold. Together, these findings provide the first experimental evidence that hydrophobic tagging represents a viable strategy for the control of protein levels.
(In general: A western blot detects proteins with antibodies after separation by electrophoresis.)

The subject of data set [2] is HEK293 or HeLa cells. Briefly: Cell viability with Resazurin (alamarBlue). As to conditions: indicated concentration, 24 hours. Here is the method:
HEK293 or HeLa cells were treated with indicated concentrations of HyT13 for 24 hours. The oxidation-reduction indicator Resazurin (alamarBlue, Invitrogen) was employed to determine cell viability.
(Alamar Blue is a resazurin reagent that responds to reducing activity.)

Data set [3] addresses T2, luciferase-HaloTag fusion protein (Rhodococcus rhodochrous, UniProt P0A3G2, C176G/H272F/K175M/Y273L).
T2 construct: The HaloTag protein was obtained from pHT2 vector (Promega); luciferase (from pGL3-Basic); expressed in transfected cells
Nature of the data set: Luciferase assay in HEK 293T cells expressing luciferase-HaloTag. As to conditions: 1 μM, 24 hours. Here is the method:
(a) Chemical structures of the representative HaloTag Ligands: HyT5, HyT12, HyT13, HyT16, HyT21 and HyT22. (b) HEK 293T cells expressing HA-HaloTag-luciferase were treated with indicated compounds at 1 μM for 24 hours, at which point luciferase assays were performed.
Ten thousand stable HEK 293T cells infected with HA-luciferase-HaloTag were plated into each well in a 96-well plate. The next day, indicated HyT compounds were added in triplicate and the cells were cultured for another 24 hours. The cells were washed once with cold PBS and lysed in Passive Lysis Buffer (Promega). The luciferase activity was performed by Steady-Glo Luciferase Assay System (Promega) on a Wallac Victor 2 Plate Reader (Perkin Elmer) and the luciferase activity was normalized by protein concentration, as determined by the Bradford assay.
The inventors designed 21 structurally distinct scaffolds as the basis for our hydrophobic Tags (HyTs), and synthesized and tested 30 compounds across these scaffolds composed of hydrophobic moieties linked to the HaloTag haloalkane reactive linker (Table 1, FIG. 5). […]

Residues, ends and D or L forms follow the SMILES beside them. *: point of attachment. Cbz = O=C(OCc1ccccc1)*

As to `CC(C)C[C@@H](C=O)NC(=O)[C@H](CC(C)C)NC(=O)[C@H](CC(C)C)NC(=O)OCc1ccccc1` [MG132, reference compound] (Cbz-Leu-Leu-Leu-aldehyde), the “effect of proteasome inhibitor on HyT13 mediated degradation” value in data set [1] is listed as “blocked HyT13 mediated degradation”.
Consider `CC(=O)NC(CCc1ccccc1)C(=O)NC(CC(C)C)C(=O)NC(Cc1ccccc1)C(=O)NC(CC(C)C)C(=O)C1(C)CO1` (stereo not shown) [YU101, reference compound], for which the “cellular toxicity (positive control)” value in data set [2] is on record as “toxic to cells”. For the same compound, the “effect of proteasome inhibitor on HyT13 mediated degradation” value in data set [1] was “blocked HyT13 mediated degradation”.
For the compound `NCCOCCOCCOCCn1cc(CCC(=O)NCCOCCOCCOCC(=O)NCCOCCOCCCCCCCl)nn1` [HyT5, 3-(1-(2-(2-(2-(2-aminoethoxy)ethoxy)ethoxy)ethyl)-1H-1,2,3-triazol-4-yl)-N-(24-chloro-11-oxo-3,6,9,15,18-pentaoxa-12-azatetracosyl)propanamide], the luciferase activity result in data set [3] is “did not decrease the luciferase activity”.

These data come from patent US10145848B2, “Small-molecule hydrophobic tagging of fusion proteins and induced degradation of same” (YALE UNIVERSITY, priority 2010, dated 2018).
